Laboratory results: patent US20060154936A1, “Use of n-'5-'4-(4-methylpiperaziomethyl)-benzoylamido!-2-methylphenyl!-4-(3-pyridyl)2-pyridine-amine for the treatment of pulmonary hypertension” (priority 2002, published 2006)

System: hypoxia-induced pulmonary hypertension
Assay: Hypoxia-induced pulmonary hypertension in rats (hypobaric-hypoxic vs ambient air, 3 weeks)
Type: in vivo, Spraque-Dawley rats
Conditions: for % wall thickness (medial hypertrophy index, pulmonary artery) / RV/LV + S(%) (right ventricle/left ventricular + septum weight ratio) / mPAP (mean pulmonary arterial pressure): 50 mg/kg intraperitoneal once daily for 3 weeks; for mPAP (mean pulmonary arterial pressure): right cardiac catheterization
From the text: This study is designed to investigate the effects of PDGF receptor signal transduction blockade on the development of hypoxia-induced pulmonary hypertension using a PDGF receptor-selective tyrosine kinase inhibitor, e.g. COMPOUND I, COMPOUND I mesylate.
The methodology as described by Ortiz L A, Champion H C, Lasky J A and col.
Pulmonary arterial pressure (PAP) can be measured in anesthetized mice with the use of a single-lumen catheter (Nu-Med, Hopkinton, N.Y.). The catheter (145 mm in length, 0.25 mm OD) has a specially curved tip to facilitate passage through the right heart, main pulmonary artery, and the left or right pulmonary artery. Immediately after placement of the pulmonary catheter (30 min in average), pressure in the main pulmonary artery is measured with a pressure transducer (Schneider/Namic, Glenns Falls, N.Y.), and mean PAP is derived electronically and recorded continuously. For the determination of pulmonary arterial wedge pressure, the catheter is advanced to the left or right pulmonary artery and wedged with continuous measurement of the pressure waveform.
Lung morphology and evaluation of right ventricular hypertrophy can be performed as below. The heart is perfused with 0.9% NaCl to remove residual blood, and the right lung is fixed in situ for 2 h by intratracheal instillation of 10% neutral formalin (Sigma, St. Louis, Mo.) at a constant pressure of 30 cmH2O and was preserved in fixative for 24 h. Lung tissues are then sectioned sagittally and embedded in paraffin. Sections (4 μm thick) are generated and mounted on positively charged slides (Fisher Scientific, Pittsburgh, Pa.). Slides are stained with hematoxylin-eosin for light microscopic examination. Immediately after death, hearts are resected to evaluate right ventricular hypertrophy. The atria are removed up to the plane of the atrial-ventricular valves. The right ventricle (RV) free wall is then dissected free of the left ventricle (LV) and septum. The RV and LV plus septum are weighed and the RV-to-LV+septum ratio is calculated.
Ten Spraque-Dawley rats are exposed to hypobaric-hypoxic (HH) conditions and ten ambient air (AA) animals are used as controls. The rats in both conditions are randomized to receive intraperitoneal injections with either once daily COMPOUND I (50 mg/kg) or placebo for 3 weeks. Right cardiac catheterizations are used to evaluate the mean pulmonary arterial pressure (mPAP). Subsequently, the rats are sacrificed for the evaluation of their medial hypertrophy index (% wall thickness of the pulmonary artery), and right ventricular hypertrophy (right ventricle/left ventricular +septum weight ratio; RV/LV+S).

Cc1ccc(NC(=O)c2ccc(CN3CCN(C)CC3)cc2)cc1Nc1nccc(-c2cccnc2)n1 [COMPOUND I]
% wall thickness (medial hypertrophy index, pulmonary artery) (ambient air (AA) rats): 10.32 ± 0.33%
RV/LV + S(%) (right ventricle/left ventricular + septum weight ratio) (ambient air (AA) rats): 24.60 ± 1.08%
mPAP (mean pulmonary arterial pressure) (ambient air (AA) rats): 16.20 ± 1.93 mmHg
% wall thickness (medial hypertrophy index, pulmonary artery) (hypobaric-hypoxic (HH) rats): 14.77 ± 0.73%
RV/LV + S(%) (right ventricle/left ventricular + septum weight ratio) (hypobaric-hypoxic (HH) rats): 35.85 ± 1.29%
mPAP (mean pulmonary arterial pressure) (hypobaric-hypoxic (HH) rats): 19.50 ± 1.32 mmHg
lowering of the index of % wall thickness (rats, 50 mg/kg i.p. once daily, 3 weeks, p=0.001): 59%
reduction of hypoxic-induced pulmonary hypertension (rats, 50 mg/kg i.p. once daily, 3 weeks, p=0.002): 80%
reduction of RV hypertrophy (rats, 50 mg/kg i.p. once daily, 3 weeks, p=0.006): 46%
